Assay results from patent US12240862B2, “Inhibitors of peptidylarginine deiminases” (Gilead Sciences, Inc., priority 2020, dated 2025).

These compounds were tested against T1, human PAD4 (Homo sapiens, UniProt Q9UM07) (assay: In vitro PAD4 BAEE biochemical assay). Conditions: human PAD4, BAEE substrate; 5 nM PAD4, 2 mM calcium chloride, 3 mM BAEE; geometric mean of multiple experiments.
T1 construct: human PAD4 (NM_012387), A2P663, was PCR amplified; His-SUMO (N, cleaved yes); made in house; host or cells: E. coli BL21(DE3)
How it was run: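 Ammonia release from BAEE deimination monitored by o-phthalaldehyde amine coupling (1 h, 25 °C) after EDTA stop. Final conditions: 5 nM tag-free recombinant human PAD4 (E. coli), 2 mM CaCl2, 3 mM BAEE, pH 7.6 MOPS with DTT; 30 min compound preincubation, then 2 h reaction at 25 °C.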

T1 sequence (Q9UM07 2-663): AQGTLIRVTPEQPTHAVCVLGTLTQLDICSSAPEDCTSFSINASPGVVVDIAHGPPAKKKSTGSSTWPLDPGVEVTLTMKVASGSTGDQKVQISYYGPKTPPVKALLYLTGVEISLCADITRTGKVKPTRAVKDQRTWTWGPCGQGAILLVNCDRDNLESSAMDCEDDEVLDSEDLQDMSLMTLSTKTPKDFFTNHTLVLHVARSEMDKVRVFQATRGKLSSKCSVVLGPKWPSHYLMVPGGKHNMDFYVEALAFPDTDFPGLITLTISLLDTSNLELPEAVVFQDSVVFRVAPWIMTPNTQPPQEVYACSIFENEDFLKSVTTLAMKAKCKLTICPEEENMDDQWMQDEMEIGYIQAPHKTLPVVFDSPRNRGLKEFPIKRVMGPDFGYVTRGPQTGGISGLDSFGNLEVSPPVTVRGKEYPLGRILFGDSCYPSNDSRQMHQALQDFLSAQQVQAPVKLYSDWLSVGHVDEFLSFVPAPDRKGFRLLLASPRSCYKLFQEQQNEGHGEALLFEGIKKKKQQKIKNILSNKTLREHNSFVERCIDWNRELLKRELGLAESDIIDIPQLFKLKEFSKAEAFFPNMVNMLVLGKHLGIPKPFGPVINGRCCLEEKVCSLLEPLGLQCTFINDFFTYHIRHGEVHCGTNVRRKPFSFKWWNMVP

**Q.** COc1cc(C(=O)N2[C@H]3CC[C@@H]2[C@H](N)C3)cc2nc(-c3cc4ccc(N5CCN(c6ccccc6)CCS5(=O)=O)nc4n3CC3CC3)c(C)n12 [Example 444, [(1~{R},2~{R},4~{S})-2-amino-7-azabicyclo [2.2.1]heptan-7-yl]-[2-[1-(cyclopropylmethyl)-6-(1,1-dioxo-5-phenyl-1,2,5-thiadiazepan-2-yl)pyrrolo [2,3-b]pyridin-2-yl]-5-methoxy-3-methylimidazo [1,2-a]pyridin-7-yl] methanone] was tested. Which IC50 did it give?
**A.** 130 nM

**Q.** COc1cc(C(=O)N2[C@H]3CC[C@@H]2[C@H](N)C3)cc2nc(-c3cc4ccc([C@@H](C)NC(=O)C5(C)CC(F)(F)C5)nc4n3CC3CC3)c(C)n12 [Example 84, ~{N}-[(1~{R})-1-[2-[7-[(1~{R},2~{R},4~{S})-2-amino-7-azabicyclo[2.2.1]heptane-7-carbonyl]-5-methoxy-3-methylimidazo [1,2-a]pyridin-2-yl]-1-(cyclopropylmethyl)pyrrolo [2,3-b]pyridin-6-yl]ethyl]-3,3-difluoro-1-methylcyclobutane-1-carboxamide] was tested. Which IC50 did it give?
**A.** 59.7 nM

**Q.** For COc1cc(C(=O)N2[C@H]3CC[C@@H]2[C@H](N)C3)cc2nc(-c3cc4ccc(C(C)CC(=O)N5CC(F)(F)C5)nc4n3CC3CC3)c(C)n12 (stereo partly drawn) [Example 519, 3-[2-[7-[(1~{R},2~{R}, 4~{S})-2-amino-7-azabicyclo[2.2.1]heptane-7-carbonyl]-5-methoxy-3-methylimidazo[1,2-a]pyridin-2-yl]-1-(cyclopropylmethyl)pyrrolo[2,3-b]pyridin-6-yl]-1-(3,3-difluoroazetidin-1-yl) butan-1-one], which IC50 is on record?
**A.** 101 nM

**Q.** COc1cc(C(=O)N2[C@H]3CC[C@@H]2[C@H](N)C3)cc2nc(-c3cc4ccc([C@@H](C)NC(=O)C(C)(C)C(=O)O)nc4n3CC3CC3)c(C)n12 [Example 155, 3-[[(1~{R})-1-[2-[7-[(1~{R},2~{R},4~{S})-2-amino-7-azabicyclo[2.2.1]heptane-7-carbonyl]-5-methoxy-3-methylimidazo [1,2-a]pyridin-2-yl]-1-(cyclopropylmethyl)pyrrolo [2,3-b]pyridin-6-yl]ethyl]amino]-2,2-dimethyl-3-oxopropanoic acid] was tested. Which IC50 did it give?
**A.** 45.5 nM

**Q.** With COC(=O)N(C)c1ccc2cc(-c3nc4cc(C(=O)N5[C@H]6CC[C@@H]5[C@H](N)C6)cc(OC)n4c3C)n(CC3CC3)c2n1 [Example 465, methyl~{N}-[2-[7-[(1~{R},2~{R},4~{S})-2-amino-7-azabicyclo[2.2.1]heptane-7-carbonyl]-5-methoxy-3-methylimidazo [1,2-a]pyridin-2-yl]-1-(cyclopropylmethyl)pyrrolo [2,3-b]pyridin-6-yl]-~{N}-methylcarbamate] as the compound, how does the IC50 read?
**A.** 85.6 nM

**Q.** How did the IC50 turn out when C=CCN[C@@H]1CC[C@@H]2CC[C@H]1N2C(=O)c1cc(OC)n2c(C)c(-c3cc4ccc(N(C(F)F)S(C)(=O)=O)nc4n3CC3CC3)nc2c1 [Example 390, ~{N}-[1-(cyclopropylmethyl)-2-[5-methoxy-3-methyl-7-[(1~{R},2~{R},5~{R})-2-(prop-2-enylamino)-8-azabicyclo[3.2.1]octane-8-carbonyl]imidazo[1,2-a]pyridin-2-yl]pyrrolo [2,3-b]pyridin-6-yl]-~{N}-(difluoromethyl) methanesulfonamide] was run?
**A.** 3790 nM

**Q.** How did the IC50 turn out when CCc1ccc2cc(-c3nc4cc(C(=O)N5[C@H]6CC[C@@H]5[C@H](N)C6)cc(OC)n4c3C)n(CC3CC3)c2n1 [Example 584, [(1~{R},2~{R},4~{S})-2-amino-7-azabicyclo [2.2.1]heptan-7-yl]-[2-[1-(cyclopropylmethyl)-6-ethylpyrrolo[2,3-b]pyridin-2-yl]-5-methoxy-3-methylimidazo[1,2-a]pyridin-7-yl]methanone] was run?
**A.** 84.5 nM

**Q.** Which IC50 does the source give for COc1cc(C(=O)N2[C@H]3CC[C@@H]2[C@H](N)C3)cc2nc(-c3cc4ccc([C@@H](C)NC(=O)c5cnccn5)nc4n3CC3CC3)c(C)n12 [Example 83] here?
**A.** 47.2 nM

**Q.** Which IC50 does the source give for COc1cc(C(=O)N2[C@H]3CC[C@@H]2[C@H](N)C3)cc2nc(-c3cc4ccc([C@@H](C)NC(=O)C(C)(O)C5CC5)nc4n3CC3CC3)c(C)n12 (stereo partly drawn) [Example 92, ~{N}-[(1~{R})-1-[2-[7-[(1~ {R},2~{R},4~{S})-2-amino-7-azabicyclo[2.2.1]heptane-7-carbonyl]-5-methoxy-3-methylimidazo [1,2-a]pyridin-2-yl]-1-(cyclopropylmethyl)pyrrolo [2,3-b]pyridin-6-yl]ethyl]-2-cyclopropyl-2-hydroxypropanamide] here?
**A.** 59.7 nM

**Q.** CCc1ccc2cc(-c3nc4cc(C(=O)N5[C@H]6CC[C@@H]5[C@H](N)C6)cc(OC)n4c3N)n(CC3CC3)c2n1 [Example 552, [(1~{R},2~{R},4~{S})-2-amino-7-azabicyclo [2.2.1]heptan-7-yl]-[3-amino-2-[1-(cyclopropylmethyl)-6-ethylpyrrolo[2,3-b]pyridin-2-yl]-5-methoxyimidazo [1,2-a]pyridin-7-yl]methanone] was tested. Which IC50 did it give?
**A.** 153 nM

**Q.** With COCc1nn(C)cc1C(=O)N[C@H](C)c1ccc2cc(-c3nc4cc(C(=O)N5[C@H]6CC[C@@H]5[C@H](N)C6)cc(OC)n4c3C)n(CC3CC3)c2n1 [Example 23, ~{N}-[(1~{R})-1-[2-[7-[(1~{R},2~{R},4~{S})-2-amino-7-azabicyclo [2.2.1]heptane-7-carbonyl]-5-methoxy-3-methylimidazo [1,2-a]pyridin-2-yl]-1-(cyclopropylmethyl)pyrrolo[2,3-b]pyridin-6-yl]ethyl]-3-(methoxymethyl)-1-methylpyrazole-4-carboxamide] as the compound, how does the IC50 read?
**A.** 61.3 nM

**Q.** How did the IC50 turn out when COc1cc(C(=O)N2[C@H]3CC[C@@H]2[C@H](N)C3)cc2nc(-c3cc4ccc([C@@H](C)NC(=O)C56CC(CO)(C5)C6)nc4n3CC3CC3)c(C)n12 [Example 65] was run?
**A.** 33.6 nM

**Q.** With COc1cc(C(=O)N2[C@H]3CC[C@@H]2[C@H](N)C3)cc2nc(-c3cc4ccc(-c5cccnc5-c5cncs5)nc4n3CC3CC3)c(C)n12 [Example 567, [(1~{R},2~{R},4~{S})-2-amino-7-azabicyclo [2.2.1]heptan-7-yl]-[2-[1-(cyclopropylmethyl)-6-[2-(1,3-thiazol-5-yl)pyridin-3-yl]pyrrolo[2,3-b]pyridin-2-yl]-5-methoxy-3-methylimidazo[1,2-a]pyridin-7-yl]methanone] as the compound, how does the IC50 read?
**A.** 114 nM

**Q.** How did the IC50 turn out when COc1cc(C(=O)N2C[C@H](N)CC[C@@H]2C)cc2nc(-c3cc4ccc(N(C(F)F)S(C)(=O)=O)nc4n3CC34CC(C3)C4)c(C)n12 [Example 496, ~{N}-[2-[7-[(2~{S}, 5~{R})-5-amino-2-methylpiperidine-1-carbonyl]-5-methoxy-3-methylimidazo[1,2-a]pyridin-2-yl]-1-(1-bicyclo [1.1.1]pentanylmethyl)pyrrolo [2,3-b]pyridin-6-yl]-~{N}-(difluoromethyl) methanesulfonamide] was run?
**A.** 418 nM

**Q.** Which IC50 does the source give for COc1cc(C(=O)N2[C@H]3CC[C@@H]2[C@H](N)C3)cc2nc(-c3cc4ccc(N5CCCCCS5(=O)=O)nc4n3CC3CC3)c(C)n12 [Example 459, [(1~{R},2~{R},4~{S})-2-amino-7-azabicyclo [2.2.1]heptan-7-yl]-[2-[1-(cyclopropylmethyl)-6-(1,1-dioxothiazepan-2-yl)pyrrolo[2,3-b]pyridin-2-yl]-5-methoxy-3-methylimidazo[1,2-a]pyridin-7-yl]methanone] here?
**A.** 28 nM
